# Test results: patent US9890152B2 (Genentech, Inc., priority 2012, dated 2018)
# Biological target: T1, EGFR del746-750 T790M (Homo sapiens, UniProt P00533, DEL746-750/T790M)
# T1 construct: purchased Carna Biosciences 08-528
# Test: EGFR del746-750 T790M biochemical assay (Caliper mobility shift)
# Conditions: 5 μM ATP, 30 min, room temperature; apparent Ki (Morrison) converted by Cheng-Prusoff, Km of ATP 2.1 μM; read-out: EGFR(T790M/d746-750) Ki
# T1 sequence (P00533 with tags, fused parts or gaps DEL746-750/T790M limits assumed): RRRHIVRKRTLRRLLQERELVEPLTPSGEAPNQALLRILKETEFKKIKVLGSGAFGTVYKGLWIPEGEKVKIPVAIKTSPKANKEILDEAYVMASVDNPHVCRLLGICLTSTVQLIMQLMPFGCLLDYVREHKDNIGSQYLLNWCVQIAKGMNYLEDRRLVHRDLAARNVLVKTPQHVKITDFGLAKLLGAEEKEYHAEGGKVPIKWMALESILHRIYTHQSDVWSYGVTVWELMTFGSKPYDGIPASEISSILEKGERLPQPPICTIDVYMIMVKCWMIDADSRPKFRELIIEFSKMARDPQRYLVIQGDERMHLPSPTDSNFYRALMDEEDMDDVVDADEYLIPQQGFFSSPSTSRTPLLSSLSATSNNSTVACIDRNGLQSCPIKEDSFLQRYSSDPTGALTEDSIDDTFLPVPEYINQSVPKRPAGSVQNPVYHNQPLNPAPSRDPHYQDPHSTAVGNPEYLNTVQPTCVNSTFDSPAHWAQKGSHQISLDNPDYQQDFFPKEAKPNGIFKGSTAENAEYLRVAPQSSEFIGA
row,SMILES,Ki
1,"COC1CCN(c2nccc(Nc3cc4c(cn3)c(C(=O)NCCO)cn4C(C)C)n2)CC1 [Example 121, N-(2-hydroxyethyl)-1-isopropyl-6-((2-(4-methoxypiperidin-1-yl)pyrimidin-4-yl)amino)-1H-pyrrolo[3,2-c]pyridine-3-carboxamide]",24.4 nM
2,COC1CCN(c2nccc(Nc3cc4c(cn3)c(-c3cc[nH]n3)cn4C(C)C)n2)CC1 [Example 64],1.2 nM
3,"COC1CCN(c2nccc(Nc3cc4c(cn3)c(C(=O)NCCn3ccnc3)cn4C(C)C)n2)CC1 [Example 63, N-(2-(1H-Imidazol-1-yl)ethyl)-1-isopropyl-6-(2-(4-methoxypiperidin-1-yl)pyrimidin-4-ylamino)-1H-pyrrolo[3,2-c]pyridine-3-carboxamide]",10.1 nM
4,"Cc1nc2cnc(Nc3ccnc(-c4cnn(CCCN)c4)n3)cc2n1C(C)C [Example 430, N-(2-(1-(3-aminopropyl)-1H-pyrazol-4-yl)pyrimidin-4-yl)-1-isopropyl-2-methyl-1H-imidazo[4,5-c]pyridin-6-amine]",47.7 nM
5,"CNc1nc2cnc(Nc3ccnc(N4CCC(OC)CC4)n3)cc2n1C(C)C [Example 6, 1-Isopropyl-N^6-[2-(4-methoxypiperidin-1-yl)pyrimidin-4-yl]-N^2-methyl-1H-imidazo[4,5-c]pyridine-2,6-diamine]",63.3 nM
6,"Cc1nc2cnc(Nc3ccnc(-n4cnc(S(C)(=O)=O)c4)n3)cc2n1C(C)C [Example 337, 1-Isopropyl-2-methyl-N-(2-(4-(methylsulfonyl)-1H-imidazol-1-yl)pyrimidin-4-yl)-1H-imidazo[4,5-c]pyridin-6-amine]",524 nM
7,Cc1nc2cnc(Nc3ccnc(-c4cnoc4)n3)cc2n1C(C)C [Example 366],14.7 nM
8,"CC(C)n1cc(C(=O)NC2COC2)c2cnc(Nc3ccnc(-c4cnn(S(=O)(=O)C5CC5)c4)n3)cc21 [Example 386, 6-((2-(1-(cyclopropylsulfonyl)-1H-pyrazol-4-yl)pyrimidin-4-yl)amino)-1-isopropyl-N-(oxetan-3-yl)-1H-pyrrolo[3,2-c]pyridine-3-carboxamide]",1.11 nM
9,"Cc1nn(CCO)cc1-c1cn(C(C)C)c2cc(Nc3ccnc(-c4cnn(S(=O)(=O)C5CC5)c4)n3)ncc12 [Example 437, 2-(4-(6-(2-(1-(cyclopropylsulfonyl)-1H-pyrazol-4-yl)pyrimidin-4-ylamino)-1-isopropyl-1H-pyrrolo[3,2-c]pyridin-3-yl)-3-methyl-1H-pyrazol-1-yl)ethanol]",1.21 nM
10,"CCC(C)n1cc(C(=O)NC2CCOCC2)c2cnc(Nc3ccnc(N4CCC(O)C(C)(C)C4)n3)cc21 (mixture of isomers) [Example 384, 1-(sec-butyl)-6-((2-(4-hydroxy-3,3-dimethylpiperidin-1-yl)pyrimidin-4-yl)amino)-N-(tetrahydro-2H-pyran-4-yl)-1H-pyrrolo[3,2-c]pyridine-3-carboxamide]",5.39 nM
11,"CC(C)n1c(CO)nc2cnc(Nc3ccnc(-c4cnn(S(=O)(=O)C5CC5)c4)n3)cc21 [Example 272, {6-[2-(1-Cyclopropanesulfonyl-1H-pyrazol-4-yl)pyrimidin-4-ylamino]-1-isopropyl-1H-imidazo[4,5-c]pyridin-2-yl}methanol]",2.12 nM
12,"CC(C)n1c(CO)nc2cnc(Nc3ccnc(N4CCC(C)(O)CC4)n3)cc21 [Example 418, 1-(4-((2-(hydroxymethyl)-1-isopropyl-1H-imidazo[4,5-c]pyridin-6-yl)amino)pyrimidin-2-yl)-4-methylpiperidin-4-ol]",169 nM
13,"COCc1nc2cnc(Nc3ccnc(-c4cnn(S(=O)(=O)C5CC5)c4)n3)cc2n1C(C)C [Example 279, [2-(1-Cyclopropanesulfonyl-1H-pyrazol-4-yl)-pyrimidin-4-yl]-(1-isopropyl-2-methoxymethyl-1H-imidazo[4,5-c]pyridin-6-yl)amine]",6.87 nM
14,"CC(C)n1cc(-c2cnn(CC(N)=O)c2)c2cnc(Nc3ccnc(-c4cnn(S(=O)(=O)C5CC5)c4)n3)cc21 [Example 331, 2-(4-(6-((2-(1-(Cyclopropylsulfonyl)-1H-pyrazol-4-yl)pyrimidin-4-yl)amino)-1-isopropyl-1H-pyrrolo[3,2-c]pyridin-3-yl)-1H-pyrazol-1-yl)acetamide]",2.83 nM
15,"CC(C)n1cc(-c2cn3c(n2)CNCC3)c2cnc(Nc3ccnc(-c4cnn(S(=O)(=O)C5CC5)c4)n3)cc21 [Example 442, N-(2-(1-(cyclopropylsulfonyl)-1H-pyrazol-4-yl)pyrimidin-4-yl)-1-isopropyl-3-(5,6,7,8-tetrahydroimidazo[1,2-a]pyrazin-2-yl)-1H-pyrrolo[3,2-c]pyridin-6-amine]",0.81 nM
16,"CCC(C)n1cc(C(=O)NC2CCOCC2)c2cnc(Nc3ccnc(N4CC[C@@H](O)[C@@H](F)C4)n3)cc21 (single isomer, unassigned) [Example 323]",3.41 nM

# Further lines, results first:
row,Ki,SMILES
1,42.8 nM,"Cc1nc2cnc(Nc3ccnc(N4CC[C@H](O)[C@H](F)C4)n3)cc2n1C(C)C (racemic) [Example 505, (±)-3-Fluoro-1-(4-((1-isopropyl-2-methyl-1H-imidazo [4,5-c]pyridin-6-yl)amino)pyrimidin-2-yl)piperidin-4-ol]"
2,118 nM,"Cc1nc2cnc(Nc3ccnc(N4CC[C@@H](F)C4)n3)cc2n1C(C)C [Example 593, [2-((R)-3-Fluoropyrrolidin-1-yl)pyrimidin-4-yl]-(1-isopropyl-2-methyl-1H-imidazo[4,5-c]pyridin-6-yl)amine]"
3,68.7 nM,"CC(C)n1c(CO)nc2cnc(Nc3ccnc(N4CC[C@H](O)[C@](C)(F)C4)n3)cc21 (racemic) [Example 645, (3RS,4SR)-3-Fluoro-1-(4-((2-(hydroxymethyl)-1-isopropyl-1H-imidazo[4,5-c]pyridin-6-yl)amino)pyrimidin-2-yl)-3-methylpiperidin-4-ol]"
4,50.5 nM,"CO[C@H]1CCN(c2nccc(Nc3cc4c(cn3)nc(CO)n4C(C)C)n2)C[C@H]1F (racemic) [Example 526, (±)-{6-[2-((cis)-3-Fluoro-4-methoxypiperidin-1-yl)pyrimidin-4-ylamino]-1-isopropyl-1H-imidazo[4,5-c]pyridin-2-yl}methanol]"
5,572 nM,CC(C)n1c(CO)nc2cnc(Nc3ccnc(N4CCC5(CC4)CNC(=O)CO5)n3)cc21 [Example 693]
6,1.65 nM,CCC(C)n1cc(C(=O)NC2COCCOC2)c2cnc(Nc3ccnc(-c4cnn(S(=O)(=O)C5CC5)c4)n3)cc21 (centres unmarked) [Example 700]
7,71.7 nM,"Cc1nc2cnc(Nc3ccnc(N4CCC5(CCO5)CC4)n3)cc2n1C(C)C [Example 495, N-(2-(1-Oxa-7-azaspiro[3.5]nonan-7-yl)pyrimidin-4-yl)-1-isopropyl-2-methyl-1H-imidazo[4,5-c]pyridin-6-amine]"
8,170 nM,"CS[C@H]1CCN(c2nccc(Nc3cc4c(cn3)nc(CO)n4C(C)C)n2)C[C@H]1F (racemic) [Example 622, (±)-{6-[2-(cis-3-Fluoro-4-methylsulfanylpiperidin-1-yl)pyrimidin-4-ylamino]-1-isopropyl-1H-imidazo[4,5-c]pyridin-2-yl}methanol]"
9,326 nM,"CO[C@@H]1CCN(c2nccc(Nc3cc4c(cn3)nc(CO)n4C(C)C)n2)C[C@@H]1C (racemic) [Example 632, (1-Isopropyl-6-(2-((±)-(cis)-4-methoxy-3-methylpiperidin-1-yl)pyrimidin-4-ylamino)-1H-imidazo[4,5-c]pyridin-2-yl)methanol]"
10,39.3 nM,CO[C@@H]1CCN(c2nccc(Nc3cc4c(cn3)nc([C@@H](C)O)n4C(C)C)n2)C[C@@H]1F [Example 659]
11,44.3 nM,CC(C)n1c([C@@H](C)O)nc2cnc(Nc3ccnc(N4CC[C@@H](O)[C@@H](F)C4)n3)cc21 [Example 658]
12,13.1 nM,"C[C@H](n1c([C@@H](C)O)nc2cnc(Nc3ccnc(OCC(C)(C)S(C)(=O)=O)n3)cc21)C(F)(F)F [Example 609, (R)-1-[6-[2-(2-Methanesulfonyl-2-methylpropoxy)pyrimidin-4-ylamino]-1-((S)-2,2,2-trifluoro-1-methylethyl)-1H-imidazo[4,5-c]pyridin-2-yl]ethanol]"
13,2.5 nM,CCC(C)n1cc(C(=O)NCCO)c2cnc(Nc3ccnc(-c4cnn(S(=O)(=O)C5CC5)c4)n3)cc21 (centres unmarked) [Example 703]
14,115 nM,"CS[C@H]1CCN(c2nccc(Nc3cc4c(cn3)nc(C)n4C(C)C)n2)C[C@H]1F (racemic) [Example 617, [2-(±)-(cis-3-Fluoro-4-methylsulfanylpiperidin-1-yl)pyrimidin-4-yl]-(1-isopropyl-2-methyl-1H-imidazo[4,5-c]pyridin-6-yl)amine]"
15,395 nM,Cc1nc2cnc(Nc3ccnc(N4CC[C@@H](O)C4)n3)cc2n1C(C)C [Example 680]
16,57.5 nM,"Cc1nc2cnc(Nc3ccnc(N4CC[C@H](F)C4)n3)cc2n1C(C)C [Example 592, [2-((S)-3-Fluoropyrrolidin-1-yl)pyrimidin-4-yl]-(1-isopropyl-2-methyl-1H-imidazo[4,5-c]pyridin-6-yl)amine]"
17,68.8 nM,COCCC(C)(C)n1c(CO)nc2cnc(Nc3ccnc(-c4cnn(S(=O)(=O)C5CC5)c4)n3)cc21 [Example 695]
18,97.1 nM,CO[C@@]1(C)CCN(c2nccc(Nc3cc4c(cn3)nc(C)n4C(C)C)n2)C[C@H]1F [Example 673]
19,14.5 nM,C[C@H](n1c([C@@H](C)O)nc2cnc(Nc3ccnc(NCC(C)(C)S(C)(=O)=O)n3)cc21)C(F)(F)F [Example 663]
20,107 nM,C[C@@H](O)c1nc2cnc(Nc3ccnc(N4CC[C@H](O)[C@H](F)C4)n3)cc2n1[C@H](C)C(F)(F)F [Example 688]
21,67.8 nM,"CC(C)n1c(CO)nc2cnc(Nc3ccnc(C4=CCC(O)CC4)n3)cc21 (centres unmarked) [Example 624, 4-(4-((2-(hydroxymethyl)-1-isopropyl-1H-imidazo[4,5-c]pyridin-6-yl)amino)pyrimidin-2-yl)cyclohex-3-enol]"
22,101 nM,"C[C@@H](O)c1nc2cnc(Nc3ccnc(N4CCC(O)C(F)C4)n3)cc2n1[C@H](C)C(F)(F)F (stereo partly drawn) [Example 542, 3-Fluoro-1-{4-[2-((R)-1-hydroxyethyl)-1-((R)-2,2,2-trifluoro-1-methylethyl)-1H-imidazo[4,5-c]pyridin-6-ylamino]pyrimidin-2-yl}-piperidin-4-ol]"
